From PubChem BioAssay (NCI)
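Each compound was tested at five concentrations against cells in 96-well plates for 48 hours. GI50 marks 50% less growth. TGI: total growth inhibition.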

Key:
Experiment in all cases: DTP human tumour cell line panel, 48 h
[1] = test system: HCT-116 colon
[2] = test system: NCI-H522 lung
[3] = test system: NCI-H460 lung
[4] = test system: HT29 colon
[5] = test system: HOP-92 NSCLC
[6] = test system: SK-MEL-2 melanoma
[7] = test system: UACC-257 melanoma
[8] = test system: HOP-62 NSCLC
[9] = test system: MALME-3M melanoma
[10] = test system: OVCAR-5 ovarian

Structure (SMILES)	GI50 [1]	TGI [1]	GI50 [2]	TGI [2]	GI50 [3]	TGI [3]	GI50 [4]	TGI [4]	GI50 [5]	TGI [5]	GI50 [6]	TGI [6]	GI50 [7]	TGI [7]	GI50 [8]	TGI [8]	GI50 [9]	TGI [9]	GI50 [10]	TGI [10]
Nc1c(C(=O)c2cccc(C#CCO)c2)cnn1-c1ccc(F)cc1	> 25 µM	> 25 µM	> 25 µM	> 25 µM	> 25 µM	> 25 µM	> 25 µM	> 25 µM	> 13.2 µM	> 25 µM	> 25 µM	> 25 µM	> 25 µM	> 25 µM	> 25 µM	> 25 µM	> 25 µM	> 25 µM	> 25 µM	> 25 µM
Cc1cnc(CNC(=O)c2c(=O)c3ccc(N4CCCN(C)CC4)nc3n3c2sc2ccccc23)cn1	0.806 µM	2.76 µM	5.94 µM	27.2 µM	0.162 µM	2.14 µM	1.43 µM	19 µM	16.4 µM	32.2 µM	12.5 µM	27 µM	17 µM	32.9 µM	7.16 µM	25.4 µM	9.24 µM	25.8 µM	13.2 µM	28.9 µM
C=C1c2ccoc2C[C@H]2[C@H]1CC[C@@]1(O)[C@@](C)(C(=O)OC)CCC[C@]21C	15.7 µM	31.2 µM	17.5 µM	54 µM	18 µM	49.9 µM	17.5 µM	81.6 µM	14.6 µM	57.1 µM	19 µM	42.2 µM	35.7 µM	> 100 µM	40.7 µM	> 100 µM	22.1 µM	56.2 µM	> 100 µM	> 100 µM
CCN1C(=O)N(CC)C2C1NN=c1s/c(=C\c3ccccn3)c(=O)n12 (stereo not given)	0.825 µM	> 100 µM	0.69 µM	10.2 µM	2.07 µM	> 100 µM	0.681 µM	> 100 µM	2.37 µM	> 100 µM	2.64 µM	> 100 µM	> 100 µM	> 100 µM	2.91 µM	> 100 µM	1.63 µM	> 100 µM	4.61 µM	> 100 µM
COC1=C(C)C(=O)c2c(cc3c(c2O)C(C)(CCC=C(C)C)C(C)O3)C1=O (stereo not given)	–	> 100 µM	–	> 100 µM	–	27.2 µM	–	> 100 µM	–	> 100 µM	–	> 60.8 µM	–	> 100 µM	–	34.1 µM	–	> 100 µM	–	> 100 µM
Cc1ccc(C(=O)NC2CCC2)cc1-c1ccc(C(=O)NCC2CC2)cc1	> 25 µM	> 25 µM	> 25 µM	> 25 µM	> 25 µM	> 25 µM	> 25 µM	> 25 µM	> 21.3 µM	> 25 µM	> 25 µM	> 25 µM	> 25 µM	> 25 µM	> 25 µM	> 25 µM	> 25 µM	> 25 µM	> 25 µM	> 25 µM
CN(C)C(=O)c1ccc([N+](=O)[O-])cc1	–	> 100 µM	–	> 100 µM	–	> 100 µM	–	> 100 µM	–	> 100 µM	–	> 100 µM	–	> 100 µM	–	> 100 µM	–	> 100 µM	–	> 100 µM
O=C1NOC(c2ccc(O)cc2)(c2ccc(O)cc2)c2ccccc21	> 100 µM	> 100 µM	> 100 µM	> 100 µM	> 100 µM	> 100 µM	> 100 µM	> 100 µM	> 100 µM	> 100 µM	> 100 µM	> 100 µM	> 100 µM	> 100 µM	> 100 µM	> 100 µM	> 100 µM	> 100 µM	> 100 µM	> 100 µM
NCCN.O=C([O-])CN1CCOCC1.[OH-].[Pt+4]	> 100 µM	> 100 µM	> 100 µM	> 100 µM	37.5 µM	> 100 µM	> 100 µM	> 100 µM	> 100 µM	> 100 µM	> 100 µM	> 100 µM	> 100 µM	> 100 µM	> 100 µM	> 100 µM	> 100 µM	> 100 µM	> 100 µM	> 100 µM
COc1ccc(/C=C(\C(=O)NCc2cccnc2)S(=O)(=O)c2ccccc2)cc1OC	2.11 µM	6.12 µM	1.7 µM	4.61 µM	2.4 µM	6.67 µM	3.45 µM	14.8 µM	2.59 µM	7.33 µM	3.01 µM	12.7 µM	3.03 µM	13.9 µM	3.51 µM	11.4 µM	3.06 µM	11.9 µM	3.31 µM	10.3 µM
O=[N+]([O-])c1ccc(N=Nc2ccc(O)c3ccccc23)cc1	2.02 µM	13.8 µM	2.23 µM	8.18 µM	3.49 µM	27.1 µM	13.7 µM	> 100 µM	0.281 µM	2.94 µM	3.23 µM	21.8 µM	3.6 µM	14.6 µM	20.3 µM	> 100 µM	12 µM	32.7 µM	14.4 µM	75.8 µM
COc1ccccc1CNCCCN1C(=O)c2ccc3c4c(ccc(c24)C1=O)C(=O)N(CCCN)C3=O	0.349 µM	1.23 µM	1.51 µM	2.97 µM	0.553 µM	2.16 µM	1.42 µM	3.75 µM	2.4 µM	5.65 µM	1.46 µM	3.31 µM	0.74 µM	2.27 µM	1.42 µM	2.95 µM	0.36 µM	1.07 µM	1.6 µM	3.56 µM
CN(C)CC1CCC2=C(C1=O)C(c1ccc(Cl)c(Cl)c1)C1=C(CCC(CN(C)C)C1=O)O2 (stereo not given)	10.4 µM	23.4 µM	1.81 µM	3.37 µM	10.3 µM	24.6 µM	8.57 µM	22.4 µM	11.3 µM	25.5 µM	16.6 µM	30.7 µM	5.14 µM	10.8 µM	12.5 µM	25.2 µM	14.9 µM	29.5 µM	20 µM	36.6 µM
